The results in this text go back to paper PMC3523389 (The Journal of pharmacology and experimental therapeutics, 2012).

The target of this test is T1, microsomal prostaglandin E2 synthase-1 (mPGES-1) (Homo sapiens, UniProt O14684).
T1 sequence (O14684 1-152): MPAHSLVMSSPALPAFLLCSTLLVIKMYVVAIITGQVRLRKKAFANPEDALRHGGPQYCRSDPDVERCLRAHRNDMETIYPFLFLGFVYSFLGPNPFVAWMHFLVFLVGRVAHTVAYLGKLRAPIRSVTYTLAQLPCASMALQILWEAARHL
Kind of test: cell-free mPGES-1 activity assay in A549 microsomes, […] inhibition at […]. The class given is cell-based. To be noted: A549, read-out: % inhibition at 10 μM.

For `CC(C)c1ccc2c(c1)c(SC(C)(C)C)c(CC(C)(C)C(=O)O)n2Cc1ccc(Cl)cc1` [MK-886, 3-[1-(4-chlorobenzyl)-3-t-butylthio-5-isopropylindol-2-yl]-2,2-dimethylpropanoic acid], the inhibition at 10 µM is 74.5 ± 1.5%.

What is called inhibition is how much of the control response was suppressed.
